System: FGFR1 gene expression
Assay: PCR to assess FGFR1 gene expression in human dermal papilla cells
Type: cell-based
Conditions: 48-hour incubation, normalized to 18S, vs DMSO control
Experimental: Method: PCR to assess FGFR1 gene expression in human dermal papilla cells, following administration of L-4-Thiazolylalanine, Pouzolzia petandra, or cis-6-nonenol.
Human dermal papilla cells (Cell Applications, CA) were plated at 5000 cells/cm^2 in collagen-coated 6-well culture plates in the Papilla Cell Growth Medium (Cell Application, CA) overnight in humidified atmosphere of 5% CO2 at 37° C. When dermal papilla cells reached 80-90% confluence, the medium was replaced with fresh medium and the compounds (L-4-Thiazolylalanine, Pouzolzia petandra, or cis-6-nonenol) dissolved in DMSO were added to the wells in duplicate at a concentration of 0.002% or 0.001%. DMSO was used a vehicle control. Following 48-hour incubation, the medium was removed and the cells were collected in the Lysis/Binding Solution (Ambion, Tex.) after being washed with cold PBS.
Total RNA was extracted from dermal papilla cells by using the RNAqueous kit (Ambion, Tex.) according to the manufacture's instruction. RNA was quantified on the Nanodrop ND-1000 Spectrophotometer (NanoDrop Technologies, DE) and the confirmation of integrity was determined using the Agilent Bioanalyzer before RNA was further processed for cDNA preparation. […]
RNA abundance of FGFR1 was measured using quantitative Real-Time PCR. […] All samples were run in triplicate and normalized to 18S and expressed as a percentage of the control.

SMILES | Percent Inhibition of FGFR1 Expression (0.001% (w/v)) [%] | Percent Inhibition of FGFR1 Expression (0.002% (w/v)) [%]
N[C@@H](Cc1cscn1)C(=O)O [L-4-Thiazolylalanine, 4-L-thiazolylalanine] | 59.13 | 
CC/C=C\CCCCCO [cis-6-nonenol] |  | 28.25

From patent US9408795B2, “Method for enhancing the growth and fullness of hair” (Avon Products, Inc., priority 2011, dated 2016)
